Reference: US11607422B2, “Uttroside B and derivatives thereof as therapeutics for hepatocellular carcinoma” (Rajiv Gandhi Centre for Biotechnology, an Autonomous …, priority 2016, dated 2023)

What was measured:
Type in all cases: cell-based, human
[1] = system: HepG2 cells; assay: Autophagy flux assay using PtfLC3 (GFP-RFP-LC3) reporter protein; settings: 500 nM, 24 h, transfected HepG2
From the text: The development of a new vector called ptf-LC3B leading to the expression of a double-tagged GFP-RFP-LC3B protein has helped in the study of autophagy flux and this recombinant protein allows to distinguish between autophagosomes (in yellow) and autophagolysosomes (in red).^33 The pGFP-mRFP-LC3B (ptf-LC3) vector was purchased from Addgene (21074). Briefly, plasmid present in the bacterial pellet was isolated according to manufacturer's instruction (GenElute™ Plasmid Miniprep Kit-Sigma-Aldrich). HepG2 cells were transfected transiently with tandem repeats of GFP-RFP tagged LC3 (ptfLC3) using the Lipofectamine LTX and Plus Reagent Kit (Invitrogen, USA) according to manufacturer's protocol. Briefly, PtfLC3 vector Opti-MEM transfection medium (Solution A) was mixed with Lipofectamine reagent dissolved in Opti-MEM transfection medium (Solution B) and incubated for 45 min at room temperature. […]
Quantitative analysis of autophagy flux using tandem GFP-RFP LC3 reporter protein. […] FIG. 29 is a bar diagram showing the quantitative analysis of autophagy induced by Uttroside B in HepG2 cells. HepG2 cells were transfected transiently with plasmid encoding GFP-RFP-LC3 as described previously and the punctae observed were counted and plotted as a histogram. The next attempt was to verify and quantitate the autophagic flux induced by Uttroside B using a tandem GFP-RFP LC3 reporter protein. […]

[2] = system: NF-κB in HepG2 cells; assay: Electrophoretic mobility shift assay of NF-κB; settings: HepG2 nuclear extract, EMSA
Experimental: Stocks of crude extracts and isolated compound of S. nigrum was prepared in DMSO for the in vitro studies and stored at −20° C. The DMSO concentration in all studies, including controls, was ≤0.2%. Cell viability assay was performed after 72 h of drug treatment while whole cell lysate preparation and cell cycle analysis were done after 24 h and 48 h of drug treatment. For studying NF-κB and AP-1, Uttroside B was incubated for 2 h before extraction.
Radiolabeling of oligonucleotide probes for electrophoretic mobility shift assay:HepG2 Cells were treated with Uttroside B for two hours, scraped and suspended in 150 μL of lysis buffer (10 mM HEPES(pH 7.9), 10 mM KCl, 0.1 mM EDTA, 0.1 mM EGTA, 1 mM DTT, 0.5 mMphenylmethylsulfonyl fluoride, 2 μg/mL leupeptin, 2 μg/mL aprotinin, 0.5 mg/ml benzamidine) for 30 min, after which 4.5 μl of 10% Nonidet P-40 was added. […]

[3] = system: LC3 in HepG2 cells; assay: Autophagy flux (LC3I to LC3II conversion) with Bafilomycin; settings: Uttroside B 500 nM + Bafilomycin 10 nM, 24 h
Experimental: Concentration dependent effect of BafilomycinAl on the endogenous conversion of LC3I to LC3II in HepG2 cells. Cells were treated with Bafilomycin Al at different concentration and the whole cell lysate was resolved on a 15% gel and immunoblotted against LC3 antibody. Uttroside B is an autophagy inducer in HepG2 cells as analysed by autophagy flux using Bafilomycin Al. […] The increase in LC3 II could not be considered as a fool proof of autophagic induction because a blockage in any step leading from autophagosome maturation to its fusion with lysosomes could cause its accumulation. So, the effect of Uttroside B in HepG2 cells were analyzed for autophagy flux, a more accurate read out of autophagy on co-treatment with Bafilomycin, an autophagy-lysosome inhibitor. Bafilomycin A, blocks autophagy by blocking the fusion of autophagosome with lysosome which cause the accumulation of autophagosome or LC3. First, the concentration of Bafilomycin Al required for saturating the blockage of autophagy-lysosome fusion was standardized. The efficacy of Bafilomycin Al, in terms of blocking autophagosome degradation in HepG2, was found peaked at 10 nM, beyond which no further accumulation of LC3 II was noted, which matched with the earlier reports.^32,37,38 […]

SMILES: C[C@H](CC[C@@]1(O)O[C@H]2C[C@H]3[C@@H]4CC[C@H]5C[C@@H](O[C@@H]6O[C@H](CO)[C@H](O[C@@H]7O[C@H](CO)[C@@H](O)[C@H](O[C@@H]8OC[C@@H](O)[C@H](O)[C@H]8O)[C@H]7O[C@@H]7O[C@H](CO)[C@@H](O)[C@H](O)[C@H]7O)[C@H](O)[C@H]6O)CC[C@]5(C)[C@H]4CC[C@]3(C)[C@H]2[C@@H]1C)CO[C@@H]1O[C@H](CO)[C@@H](O)[C@H](O)[C@H]1O [Uttroside B]
- GFP-RFP-LC3 puncta [1]: increase in amount of yellow puncta and red puncta
- constitutive activation of NF-κB [2]: could not produce any significant down-regulation
- LC3II on co-treatment with Bafilomycin [3]: surplus accumulation of LC3II
